Experimental data published in patent US9486506B2 (Novo Nordisk A/S, priority 2011, dated 2016).
Numbered stars: 1 amine (or outer) side, 2 acyl side, 3 side chain; on linkers, the order of the positions; unused ones are H or OH. Side chains are listed from the residue outwards. Peptide text beside a SMILES is read from it. * marks the point of attachment. C18 diacid = O=C(O)CCCCCCCCCCCCCCCCC(=O)*; γGlu = O=C(O)[C@H](CCC(=O)[*:2])N[*:1]; AEEA = NCCOCCOCC(=O)O

Tests used:
[1] = Assay (X) Chemical stability assessment by RP-UPLC; assay type: physicochemical; conditions: pH 8.15, 14 days at 37° C. vs 5° C., 333 μM
Description: Chemical Stability Assessment
Lyophilized samples were dissolved in buffer (see below for detailed compositions) to a final concentration of 333 μM and a pH of 8.15, and were incubated for 14 days at 5° C. and 37° C. followed by RP-UPLC analysis. Purity was defined as the area percentage of the main peak in relation to the total area of all integrated peaks in each chromatogram. Purity loss after 14 days at 37° C. was determined as the difference in purity between the samples incubated at 5° C. and 37° C., divided by the purity of the sample after incubation for 14 days at 5° C.
RP-UPLC analysis was performed using a Waters BEH130 2.1 mm×150 mm, 1.7 μm column operated at 50° C. and a flow rate of 0.4 mL/min using a mobile phase system consisting of typically A: 50 mM Phosphate, 10 w/w % Acetonitrile pH 3 and B: 80 v/v Acetonitrile. UV-detection was performed at 215 nm. The typical gradient profile used for most of the samples is shown below.
For some individual analogues eluting at substantially different retention times compared with the majority of analogues, some adjustments to the gradient profile were made to better enable purity assessment comparison across samples. Also the composition of the channel B mobile phase component was in some of the analyses exchanged for a 90 v/v % Acetonitrile solvent solution in an attempt to better handle carry-over of material from one injection to the next in the sequence. This was however compensated for by recalculating the gradient profile appropriately.
Buffer: • 50 mM Dinatriumphosphatdihydrat • 184 mM Propylenglycol • 58 mM Phenol • pH adjusted to 8.15 with H3PO4. In cases where pH was adjusted to 8.15 after re-suspension of analogues, 0.2 M NaOH was used. Assay (XI) Pharmacokinetic Study in Minipigs

glucagon receptor = target: T1, glucagon receptor (Homo sapiens, UniProt P47871); experiment: Assay (I) Glucagon activity (cAMP biosensor, FLIPR); assay type: cell-based
T1 construct: expressed in transfected cells
T1 sequence (P47871 26-477): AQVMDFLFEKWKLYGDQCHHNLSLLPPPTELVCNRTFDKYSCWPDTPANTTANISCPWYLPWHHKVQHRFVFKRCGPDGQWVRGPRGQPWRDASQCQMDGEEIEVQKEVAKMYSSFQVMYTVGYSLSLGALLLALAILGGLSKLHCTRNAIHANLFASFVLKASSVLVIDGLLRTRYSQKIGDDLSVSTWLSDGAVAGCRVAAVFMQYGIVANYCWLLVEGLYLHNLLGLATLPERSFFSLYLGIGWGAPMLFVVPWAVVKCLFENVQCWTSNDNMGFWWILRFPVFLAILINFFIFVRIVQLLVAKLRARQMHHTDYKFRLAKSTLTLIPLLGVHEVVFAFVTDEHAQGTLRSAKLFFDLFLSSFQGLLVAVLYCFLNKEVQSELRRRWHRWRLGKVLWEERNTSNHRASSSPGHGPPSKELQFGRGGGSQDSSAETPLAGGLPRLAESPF

Row | SMILES | Chemical stability [Purity loss/14 days 37 C.] [1] [%] | EC50 (glucagon receptor) [nM]
1 | CC(C)C[C@H](NC(=O)[C@H](CC(C)C)NC(=O)[C@H](Cc1c[nH]c2ccccc12)NC(=O)[C@H](CCCCNC(=O)CC[C@H](NC(=O)CC[C@H](NC(=O)COCCOCCNC(=O)COCCOCCNC(=O)CC[C@H](NC(=O)CCCCCCCCCCCCCCCCC(=O)O)C(=O)O)C(=O)O)C(=O)O)NC(=O)[C@@H](NC(=O)[C@H](Cc1ccccc1)NC(=O)[C@H](CC(=O)O)NC(=O)[C@H](CCC(N)=O)NC(=O)[C@H](C)NC(=O)[C@H](CCCNC(=N)N)NC(=O)[C@H](CCCNC(=N)N)NC(=O)[C@H](CC(C)C)NC(=O)[C@H](CC(=O)O)NC(=O)[C@H](CC(C)C)NC(=O)[C@H](Cc1ccc(O)cc1)NC(=O)[C@H](CCCNC(=N)N)NC(=O)[C@H](CO)NC(=O)[C@H](Cc1ccc(O)cc1)NC(=O)[C@H](CC(=O)O)NC(=O)[C@H](CO)NC(=O)[C@@H](NC(=O)[C@H](Cc1ccccc1)NC(=O)[C@@H](NC(=O)CNC(=O)[C@H](CCC(N)=O)NC(=O)[C@H](CO)NC(=O)[C@@H](N)Cc1c[nH]cn1)[C@@H](C)O)[C@@H](C)O)C(C)C)C(=O)NCC(=O)N[C@H](C(=O)O)[C@@H](C)O [Example 88, N^ε24-[(4S)-4-carboxy-4-[[(4S)-4-carboxy-4-[[2-[2-[2-[[2-[2-[2-[[(4S)-4-carboxy-4-(17-carboxyheptadecanoylamino)butanoyl]amino]ethoxy]ethoxy]acetyl]amino]ethoxy]ethoxy]acetyl]amino]butanoyl]amino]butanoyl]-[Arg12,Leu16,Lys24,Leu27,Gly28]-Glucagon] (H-HSQGTFTSDYSRYLDLRRAQDFVK([γGlu-γGlu-AEEA-AEEA-γGlu-C18 diacid])WLLGT-OH) | 4.7 | 0.47
2 | CC(C)C[C@H](NC(=O)[C@H](Cc1ccc(O)cc1)NC(=O)[C@H](CCCNC(=N)N)NC(=O)[C@H](CO)NC(=O)[C@H](Cc1ccc(O)cc1)NC(=O)[C@H](CC(=O)O)NC(=O)[C@H](CO)NC(=O)[C@@H](NC(=O)[C@H](Cc1ccccc1)NC(=O)[C@@H](NC(=O)CNC(=O)[C@H](CCC(N)=O)NC(=O)[C@H](CO)NC(=O)[C@@H](N)Cc1c[nH]cn1)[C@@H](C)O)[C@@H](C)O)C(=O)N[C@@H](CCC(=O)O)C(=O)N[C@@H](CO)C(=O)N[C@@H](CCCNC(=N)N)C(=O)N[C@@H](CCCNC(=N)N)C(=O)N[C@@H](C)C(=O)N[C@@H](CCC(N)=O)C(=O)N[C@@H](CC(=O)O)C(=O)N[C@@H](Cc1ccccc1)C(=O)N[C@H](C(=O)N[C@@H](CCCCNC(=O)CC[C@H](NC(=O)CC[C@H](NC(=O)COCCOCCNC(=O)COCCOCCNC(=O)CC[C@H](NC(=O)CCCCCCCCCCCCCCCCC(=O)O)C(=O)O)C(=O)O)C(=O)O)C(=O)N[C@@H](Cc1c[nH]c2ccccc12)C(=O)N[C@@H](CC(C)C)C(=O)N[C@@H](CC(C)C)C(=O)N[C@@H](CO)C(=O)N[C@H](C(=O)O)[C@@H](C)O)C(C)C [Example 14, N^ε24-[(4S)-4-carboxy-4-[[(4S)-4-carboxy-4-[[2-[2-[2-[[2-[2-[2-[[(4S)-4-carboxy-4-(17-carboxyheptadecanoylamino)butanoyl]amino]ethoxy]ethoxy]acetyl]amino]ethoxy]ethoxy]acetyl]amino]butanoyl]amino]butanoyl]-[Arg^12,Glu^15,Lys^24,Leu^27,Ser^25]-Glucagon] (H-HSQGTFTSDYSRYLESRRAQDFVK([γGlu-γGlu-AEEA-AEEA-γGlu-C18 diacid])WLLST-OH; N-terminus and C-terminus assumed) | 8.6 | 
